Laboratory results as given in patent US11130741B2 (Bioimics AB, priority 2016, dated 2021).
Values after ≈ are worked out from the molar mass of the structure shown. Structures can show the parent of a compound that is named as a salt. Where two headings read alike, the source gives them in different places.

Columns and labels:
[1] = tested on: Staphylococcus aureus subsp. aureus (ATCC29213); assay: MIC, broth microdilution (CLSI), Staphylococcus aureus subsp. aureus ATCC29213; format: cell-based; conditions: ATCC29213, Table 15, read-out: S. aureus ("wound") (MIC)
[2] = tested on: Escherichia coli (ATCC25922); assay: MIC, broth microdilution (CLSI), Escherichia coli ATCC25922
[3] = ATCC25922, read-out: E. coli MIC, Table 15, NI = No inhibition
[4] = ATCC25922, read-out: E. coli MIC

Row | SMILES | MIC [1] | MIC [2, 3] | MIC [2, 4]
1 | NC1CCCC(C(=O)Nc2cc(C(F)(F)F)cc3c2Nc2ccc(N4CCNCC4)cc2S3)C1 (stereo not shown) [compound 256, 3-amino-N-(7-(piperazin-1-yl)-3-(trifluoromethyl)-10H-phenothiazin-1-yl)cyclohexane-1-carboxamide] | 16 µg/mL (≈ 32.5 µM) | 32 µg/mL (≈ 65.1 µM) | –
2 | NC1CCCC(C(=O)Nc2cc(C(F)(F)F)cc3c2Nc2ccncc2S3)C1 (stereo not shown) [compound 257, 3-amino-N-(8-(trifluoromethyl)-5H-benzo[e]pyrido[3,4-b][1,4]thiazin-6-yl)cyclohexanecarboxamide] | 64 µg/mL (≈ 157 µM) | 128 µg/mL (≈ 313 µM) | –
3 | FC(F)(F)c1cc(NC2CCNCC2)c2c(c1)SC1CCCCC1N2 (stereo not shown) [compound 259, N-(piperidin-4-yl)-7-(trifluoromethyl)-2,3,4,4a,10,10a-hexahydro-1H-phenothiazin-9-amine] | 16 µg/mL (≈ 43.1 µM) | 64 µg/mL (≈ 172 µM) | –
4 | NCCCN1c2ccc(C(=O)O)cc2Sc2cc(-c3cc4ccccc4[nH]3)ccc21 [compound 262, 10-(3-aminopropyl)-7-(1H-indol-2-yl)-10H-phenothiazine-3-carboxylic acid trifluoro acetic acid] | 32 µg/mL (≈ 77 µM) | – | > 128 µg/mL
5 | NC1CCCC(C(=O)Nc2cc(C(F)(F)F)cc3c2Nc2ncccc2S3)C1 (stereo not shown) [compound 263, 3-amino-N-(7-(trifluoromethyl)-10H-benzo[b]pyrido[2,3-e] [1,4]thiazin-9-yl)cyclohexane-1-carboxamide] | 64 µg/mL (≈ 157 µM) | 64 µg/mL (≈ 157 µM) | –
6 | FC(F)(F)c1cc(NC2CCNCC2)c2c(c1)Sc1cccnc1N2 [compound 264, N-(piperidin-4-yl)-7-(trifluoromethyl)-10H-benzo[b] pyrido[2,3-e] [1,4]thiazin-9-amine] | 8 µg/mL (≈ 21.8 µM) | 16 µg/mL (≈ 43.7 µM) | –
7 | NCCCN1c2ccc(N3CCNCC3)cc2Sc2cc(C(F)(F)F)ccc21 [compound 265, 3-(3-(piperazin-1-yl)-7-(trifluoromethyl)-10H-phenothiazin-10-yl)propan-1-amine hydrochloride] | 16 µg/mL | – | 64 µg/mL
8 | NCCCN1c2ccncc2Sc2cc(-c3cc4ccccc4[nH]3)ccc21 [compound 267, 3-(8-(1H-indol-2-yl)-5H-benzo[b]pyrido[4,3-e] [1,4]thiazin-5-yl)propan-1-amine trifluoro acetic acid] | 2 µg/mL (≈ 5.37 µM) | – | 16 µg/mL (≈ 43 µM)
9 | NCCN1CCN(c2ccc3c(c2)Sc2cc(C(F)(F)F)cc(NC4CCNCC4)c2N3)CC1 [compound 269, 7-(4-(2-aminoethyl)piperazin-1-yl)-N-(piperidin-4-yl)-3-(trifluoromethyl)-10H-phenothiazin-1-amine hydrochloride] | 16 µg/mL | – | 64 µg/mL
10 | FC(F)(F)c1cc(NC2CCNCC2)c2c(c1)Sc1cc(N3CCNCC3)ccc1N2 [compound 270, 7-(piperazin-1-yl)-N-(piperidin-4-yl)-3-(trifluoromethyl)-10H-phenothiazin-1-amine hydrochloride] | 32 µg/mL | – | 128 µg/mL
11 | CCOC(=O)c1ccc2c(c1)Sc1cc(N3CCN(CCN)CC3)ccc1N2CCCN [compound 271, ethyl 7-(4-(2-aminoethyl)piperazin-1-yl)-10-(3-aminopropyl)-10H-phenothiazine-3-carboxylate trifluoro acetic acid] | 128 µg/mL (≈ 281 µM) | – | > 128 µg/mL
12 | Cl.Cl.NCCN1CCC(Nc2cc(C(F)(F)F)cc3c2Nc2ccc(N4CCC(N)CC4)cc2S3)CC1 [compound 272, N-(1-(2-aminoethyl)piperidin-4-yl)-7-(4-aminopiperidin-1-yl)-3-(trifluoromethyl)-10H-phenothiazin-1-amine] | 16 µg/mL | 32 µg/mL | –
13 | Cl.Cl.Cl.NCCC1CCN(c2ccc3c(c2)Sc2cc(C(F)(F)F)cc(NC4CCN(CCN)CC4)c2N3)CC1 [compound 273, 7-(4-(2-aminoethyl)piperidin-1-yl)-N-(1-(2-aminoethyl)piperidin-4-yl)-3-(trifluoromethyl)-10H-phenothiazin-1-amine hydrochloride] | 8 µg/mL | 32 µg/mL | –
14 | CCOC(=O)c1ccc2c(c1)Sc1cc(Br)ccc1N2CCCN [compound 276, ethyl 10-(3-aminopropyl)-7-bromo-10H-phenothiazine-3-carboxylate] | 4 µg/mL (≈ 9.82 µM) | 32 µg/mL (≈ 78.6 µM) | –
15 | Cl.Cl.NCCCN1c2ccc(C(=O)O)cc2Sc2cc(N3CCN(CCN)CC3)ccc21 [compound 277, 7-(4-(2-aminoethyl)piperazin-1-yl)-10-(3-aminopropyl)-10H-phenothiazine-3-carboxylic acid hydrochloride] | > 128 µg/mL | – | > 128 µg/mL
16 | Cl.Cl.Cl.NCCCN1c2ccc(Br)cc2Sc2cc(N3CCN(CCN)CC3)ccc21 [compound 278, 3-(3-(4-(2-aminoethyl)piperazin-1-yl)-7-bromo-10H-phenothiazin-10-yl)propan-1-amine hydrochloride] | 32 µg/mL | 128 µg/mL | –

Row | SMILES | MIC [1] | MIC [2, 3] | MIC [2, 4]
17 | CC1CN(c2ccc3c(c2)Sc2cc(Br)ccc2N3CCCN)CC(C)O1.Cl (stereo not shown) [compound 279, 3-(3-bromo-7-(2,6-dimethyl-morpholino)-10H-phenothiazin-10-yl)propan-1-amine hydrochloride] | 16 µg/mL | 128 µg/mL | –
18 | Cl.Cl.NCCN1CCC(Nc2cc(C(=O)NNc3ccc(F)cc3)cc3c2Nc2ccccc2S3)CC1 [compound 280, 1-((1-(2-aminoethyl)piperidin-4-yl)amino)-N′-(4-fluorophenyl)-10H-phenothiazine-3-carbohydrazide hydrochloride] | 16 µg/mL | 64 µg/mL | –
19 | Cl.Cl.NCCN1CCC(Nc2cc(C(=O)NNc3ccccc3)cc3c2Nc2ccccc2S3)CC1 [compound 281, 1-((1-(2-aminoethyl)piperidin-4-yl)amino)-N′-phenyl-10H-phenothiazine-3-carbohydrazide hydrochloride] | 32 µg/mL | 64 µg/mL | –
20 | Cl.Cl.NCCN1CCC(Nc2cc(C(F)(F)F)cc3c2Nc2ccc(Br)cc2S3)CC1 [compound 282, N-(1-(2-aminoethyl)piperidin-4-yl)-7-bromo-3-(trifluoromethyl)-10H-phenothiazin-1-amine hydrochloride] | 4 µg/mL | 8 µg/mL | –
21 | CC1CC(C)CN(c2ccc3c(c2)Sc2cc(N4CCN(CCN)CC4)ccc2N3CCCN)C1.Cl.Cl.Cl.Cl (stereo not shown) [compound 286, 3-(3-(4-(2-aminoethyl)piperazin-1-yl)-7-(3,5-dimethyl-piperidin-1-yl)-10H-phenothiazin-10-yl)propan-1-amine hydrochloride] | 32 µg/mL | 128 µg/mL | –
22 | Cl.Cl.NCCN1CCC(Nc2cc(C(N)=O)cc3c2Nc2ccccc2S3)CC1 [compound 287, 1-((1-(2-aminoethyl)piperidin-4-yl)amino)-10H-phenothiazine-3-carboxamide hydrochloride] | 128 µg/mL | – | > 128 µg/mL
23 | Cl.Cl.NCCN1CCC(Nc2cc(C(=O)N3CCCC3)cc3c2Nc2ccccc2S3)CC1 [compound 288, (1-(1-(2-aminoethyl)piperidin-4-ylamino)-10H-phenothiazin-3-yl)(pyrrolidin-1-yl)methanone] | 128 µg/mL | – | 128 µg/mL
24 | Cl.Cl.NCCN1CCC(Nc2cc(C(F)(F)F)cc3c2Nc2ccc(N4CCCCC4)cc2S3)CC1 [compound 289, N-(1-(2-aminoethyl)piperidin-4-yl)-7-(piperidin-1-yl)-3-(trifluoromethyl)-10H-phenothiazin-1-amine hydrochloride] | 4 µg/mL | 8 µg/mL | –
25 | FC(F)(F)c1cc(NC2CC3CCC(C2)N3)c2c(c1)Sc1ccccc1N2 (stereo not shown) [compound 290, N-(8-azabicyclo[3.2.1]octan-3-yl)-3-(trifluoromethyl)-10H-phenothiazin-1-amine] | 8 µg/mL (≈ 20.4 µM) | 32 µg/mL (≈ 81.7 µM) | –
26 | Cl.Cl.Cl.NCCCN1c2ccc(N3CCCC3)cc2Sc2cc(N3CCN(CCN)CC3)ccc21 [compound 291, 3-(3-(4-(2-aminoethyl)piperazin-1-yl)-7-(pyrrolidin-1-yl)-10H-phenothiazin-10-yl)propan-1-amine hydrochloride] | 16 µg/mL | 128 µg/mL | –
27 | Cl.NCCN1CCC(Nc2cc(C(F)(F)F)cc3c2Nc2ccc(N4CCC4)cc2S3)CC1 [compound 296, N-(1-(2-aminoethyl)piperidin-4-yl)-7-(azetidin-1-yl)-3-(trifluoromethyl)-10H-phenothiazin-1-amine hydrochloride] | 4 µg/mL | 8 µg/mL | –
28 | Cl.Cl.N#Cc1ccc2c(c1)Sc1cc(C(F)(F)F)cc(NC(=O)CCNCCN)c1N2 [compound 304, 3-((2-aminoethyl)amino)-N-(7-cyano-3-(trifluoromethyl)-10H-phenothiazin-1-yl)propanamide hydrochloride] | 16 µg/mL | 32 µg/mL | –
29 | CC1CCCN(c2ccc3c(c2)Sc2cc(C(F)(F)F)cc(NC(=O)CCNCCN)c2N3)C1.Cl.Cl (stereo not shown) [compound 308, 3-((2-aminoethyl)amino)-N-(7-(3-methyl-piperidin-1-yl)-3-(trifluoromethyl)-10H-phenothiazin-1-yl)propanamide hydrochloride] | 16 µg/mL | 64 µg/mL | –
30 | Cl.Cl.NCCN1CCC(Nc2cc(C(F)(F)F)cc3c2Nc2ccc(N4CCc5ccccc54)cc2S3)CC1 [compound 310, N-(1-(2-aminoethyl)piperidin-4-yl)-7-(indolin-1-yl)-3-(trifluoromethyl)-10H-phenothiazin-1-amine hydrochloride] | 8 µg/mL | 128 µg/mL | –
31 | CC1CCCN(c2ccc3c(c2)Sc2cc(C(F)(F)F)cc(NC(=O)C4CCCC(N)C4)c2N3)C1.Cl.Cl (stereo not shown) [compound 313, 3-amino-N-(7-(3-methyl-piperidin-1-yl)-3-(trifluoromethyl)-10H-phenothiazin-1-yl)cyclohexane-1-carboxamide hydrochloride] | 16 µg/mL | > 128 µg/mL | –
32 | CC1CCCN1c1ccc2c(c1)Sc1cc(C(F)(F)F)cc(NC3CCN(CCN)CC3)c1N2.Cl.Cl (stereo not shown) [compound 316, N-(1-(2-aminoethyl)piperidin-4-yl)-7-(2-methyl-pyrrolidin-1-yl)-3-(trifluoromethyl)-10H-phenothiazin-1-amine hydrochloride] | 2 µg/mL | 8 µg/mL | –
